Test results taken from US20190071416A1, “COMPOUNDS FOR TREATMENT OF CANCER AND EPIGENETICS” (Agency For Science, Technology and Research, priority 2015, published 2019).

Molecular target: T1, SMYD3 (Homo sapiens, UniProt Q9H7B4)
T1 sequence (Q9H7B4 1-428): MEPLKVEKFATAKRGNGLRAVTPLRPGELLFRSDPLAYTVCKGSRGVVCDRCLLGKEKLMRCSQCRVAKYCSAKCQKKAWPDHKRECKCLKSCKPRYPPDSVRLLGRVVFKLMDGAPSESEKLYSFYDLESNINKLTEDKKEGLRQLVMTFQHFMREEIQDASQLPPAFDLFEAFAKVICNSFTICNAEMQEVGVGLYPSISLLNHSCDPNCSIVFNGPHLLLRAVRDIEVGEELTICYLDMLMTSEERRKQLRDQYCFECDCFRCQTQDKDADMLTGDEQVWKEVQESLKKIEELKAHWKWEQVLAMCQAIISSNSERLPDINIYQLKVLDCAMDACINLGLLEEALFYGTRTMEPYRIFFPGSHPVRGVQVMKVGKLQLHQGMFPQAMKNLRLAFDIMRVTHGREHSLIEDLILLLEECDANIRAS
Assay: SMYD3 biochemical assay (MTase-Glo, MAP3K2 peptide substrate)
Conditions: Table 3; MTase assay, MAP3K2 peptide substrate; read-out: IC50
Procedure: A SMYD3 enzymatic assay was developed using Promega's Methyltransferase-Glo™ reagents. In the assay, SMYD3 catalyzes the methylation of the MAP3K2 peptide substrate by transferring a methyl group from SAM to MAP3K2 peptide and further converts the SAM to SAH. The SMYD3 methyltransferase activity is measured based on the amount of SAH produced from the reaction through the use of coupling enzymes that convert the SAH to ATP. The MTase-Glo detection solution then catalyzes the formation of light from ATP.
A final concentration of 1.0 μM and 10 μM SAM and MAP3K2 peptide were added and further incubated for 30 min at room temperature before adding the MTase Glo and detection reagent. Reaction signals were detected using microplate readers on luminescent mode (Safire Tecan). The IC50 was determined by non-linear regression, using GraphPad Prism version, 5.03.

| IC50 [nM] | Structure (SMILES) |
| --- | --- |
| 1400 | CCCOC(=O)N1CCN(C(=O)c2ccc3c(Cl)cc(C4(C)CC4)nc3c2)CC1 [B133, Propyl 4-(4-chloro-2-(1-methylcyclopropyl)quinoline-7-carbonyl)piperazine-1-carboxylate] |
| 430 | CCCOC(=O)N1CCN(C(=O)c2ccc3c(Cl)cc(-c4ccc(S(=O)(=O)NC)cc4)nc3c2)CC1 [B116, Propyl 4-(4-chloro-2-(4-(N-methylsulfamoyl)phenyl)quinoline-7-carbonyl)piperazine-1-carboxylate] |
| 23 | CCCOC(=O)N1CCN(C(=O)c2ccc3c(Cl)cc(-c4ccn(C)c4)nc3c2)CC1 [B130, Propyl 4-(4-chloro-2-(1-methyl-1H-pyrrol-3-yl)quinoline-7-carbonyl)piperazine-1-carboxylate] |
| 890 | CCCOC(=O)N1CCN(C(=O)c2ccc3c(Cl)cc(-c4cnc5cccnc5c4)nc3c2)C[C@@H]1C [B188, Propyl (S)-4-(4-chloro-2-(1,5-naphthyridin-3-yl)quinoline-7-carbonyl)-2-methylpiperazine-1-carboxylate] |
| 310 | CCCOC(=O)N1CCN(C(=O)c2ccc3c(Cl)cc(-c4cccc(-n5cnnc5)c4)nc3c2)C[C@H]1C [B096, Propyl (R)-4-(2-(3-(4H-1,2,4-triazol-4-yl)phenyl)-4-chloroquinoline-7-carbonyl)-2-methylpiperazine-1-carboxylate] |
| 480 | CCCOC(=O)N1CCN(C(=O)c2ccc3c(Cl)c4c(nc3c2)CC(c2ncccc2C)CC4)C[C@H]1C (stereo partly drawn) [A108, Propyl (2R)-4-(9-chloro-6-(3-methylpyridin-2-yl)-5,6,7,8-tetrahydroacridine-3-carbonyl)-2-methylpiperazine-1-carboxylate] |
| 510 | CCCOC(=O)N1CCN(C(=O)c2ccc3c(Cl)c4c(nc3c2)CCC(CCN(C)C)C4)[C@@H](C)C1 (stereo partly drawn) [A082, Propyl (3S)-4-(9-chloro-7-(2-(dimethylamino)ethyl)-5,6,7,8-tetrahydroacridine-3-carbonyl)-3-methylpiperazine-1-carboxylate] |
| 26 | CCCOC(=O)N1CCN(C(=O)c2ccc3c(Cl)cc(-c4ccc(C(=O)NC5CC5)cc4)nc3c2)CC1 [B210, Propyl 4-(4-chloro-2-(4-(cyclopropylcarbamoyl)phenyl)quinoline-7-carbonyl)piperazine-1-carboxylate] |
| 620 | CCCOC(=O)N1CCN(C(=O)c2ccc3c(Cl)cc(-c4ccc(F)c(C(N)=O)c4)nc3c2)CC1 [B151, Propyl 4-(2-(3-carbamoyl-4-fluorophenyl)-4-chloroquinoline-7-carbonyl)piperazine-1-carboxylate] |
| 18 | CCCOC(=O)N1CCN(C(=O)c2ccc3c(Cl)cc(-c4ccc5c(cnn5C)c4)nc3c2)C[C@@H]1C [B144, Propyl (S)-4-(4-chloro-2-(1-methyl-1H-indazol-5-yl)quinoline-7-carbonyl)-2-methylpiperazine-1-carboxylate] |
| 380 | CCCOC(=O)N1CCN(C(=O)c2ccc3c(Cl)c4c(nc3c2)CCC(CC(=O)OC)C4)CC1 (stereo not shown) [A034, Propyl 4-(9-chloro-7-(2-methoxy-2-oxoethyl)-5,6,7,8-tetrahydroacridine-3-carbonyl)piperazine-1-carboxylate] |
| 98 | C[C@@H]1CN(C(=O)c2ccc3c(Cl)cc(-c4ccn(C)c4)nc3c2)CCN1C(=O)OCCCF [B234, 3-Fluoropropyl (R)-4-(4-chloro-2-(1-methyl-1H-pyrrol-3-yl)quinoline-7-carbonyl)-2-methylpiperazine-1-carboxylate] |
| 24 | CCCOC(=O)N1CCN(C(=O)c2ccc3c(Cl)cc(-c4ccc(C(C)N(C)C)cc4)nc3c2)C[C@H]1C (stereo partly drawn) [B284, Propyl (2R)-4-(4-chloro-2-(4-(1-(dimethylamino)ethyl)phenyl)quinoline-7-carbonyl)-2-methylpiperazine-1-carboxylate] |
| 75 | CCCOC(=O)N1CCN(C(=O)c2ccc3c(Cl)c4c(nc3c2)CC(CCN(C)C)CC4)C[C@H]1C (stereo partly drawn) [A135, Propyl (2R)-4-(9-chloro-6-(2-(dimethylamino)ethyl)-5,6,7,8-tetrahydroacridine-3-carbonyl)-2-methylpiperazine-1-carboxylate] |
| 140 | Cn1ccc(-c2cc(Cl)c3ccc(C(=O)N4CCN(C(=O)OCCF)CC4)cc3n2)c1 [B248, 2-Fluoroethyl 4-(4-chloro-2-(1-methyl-1H-pyrrol-3-yl)quinoline-7-carbonyl)piperazine-1-carboxylate] |
| 290 | C#CCC1CCc2c(nc3cc(C(=O)N4CCN(C(=O)OCCC)C[C@@H]4C)ccc3c2Cl)C1 (stereo partly drawn) [A137, Propyl (3S)-4-(9-chloro-6-(prop-2-yn-1-yl)-5,6,7,8-tetrahydroacridine-3-carbonyl)-3-methylpiperazine-1-carboxylate] |

| IC50 [nM] | Structure (SMILES) |
| --- | --- |
| 110 | CCCOC(=O)N1CCN(C(=O)c2ccc3c(Cl)c4c(nc3c2)CC(c2ccncc2)CC4)[C@@H](C)C1 (stereo partly drawn) [A092, Propyl (3S)-4-(9-chloro-6-(pyridin-4-yl)-5,6,7,8-tetrahydroacridine-3-carbonyl)-3-methylpiperazine-1-carboxylate] |
| 1800 | CCCOC(=O)N1CCN(C(=O)c2ccc3c(Cl)c4c(nc3c2)CCCC4)C(C)C1C (stereo not shown) [A033, Propyl 4-(9-chloro-5,6,7,8-tetrahydroacridine-3-carbonyl)-2,3-dimethylpiperazine-1-carboxylate] |
| 160 | CCCOC(=O)N1CCN(C(=O)c2ccc3c(Cl)c4c(nc3c2)CC(CN)CC4)[C@@H](C)C1 (stereo partly drawn) [A067, Propyl (3S)-4-(6-(aminomethyl)-9-chloro-5,6,7,8-tetrahydroacridine-3-carbonyl)-3-methylpiperazine-1-carboxylate] |
| 84 | CCCOC(=O)N1CCN(C(=O)c2ccc3c(Cl)cc(-c4cccc(C(C)O)c4)nc3c2)CC1 (stereo not shown) [B158, Propyl 4-(4-chloro-2-(3-(1-hydroxyethyl)phenyl)quinoline-7-carbonyl)piperazine-1-carboxylate] |
| 1000 | CCCOC(=O)N1CCN(C(=O)c2ccc3c(Cl)cc(-c4cccc(F)c4)nc3c2)CC1 [B049, Propyl 4-(4-chloro-2-(3-fluorophenyl)quinoline-7-carbonyl)piperazine-1-carboxylate] |
| 1300 | C#Cc1cccc(-c2cc(Cl)c3ccc(C(=O)N4CCN(C(=O)OCCC)[C@H](C)C4)cc3n2)c1 [B071, Propyl (R)-4-(4-chloro-2-(3-ethynylphenyl)quinoline-7-carbonyl)-2-methylpiperazine-1-carboxylate] |
| 2500 | CCCOC(=O)N1CCN(C(=O)c2ccc3c(Cl)cc(-c4cncc(C)c4)nc3c2)CC1 [B005, Propyl 4-(4-chloro-2-(5-methylpyridin-3-yl)quinoline-7-carbonyl)piperazine-1-carboxylate] |
| 290 | CCCOC(=O)N1CC(C)N(C(=O)c2ccc3c(Cl)c4c(nc3c2)CCCC4)CC1C (stereo not shown) [A017, Propyl 4-(9-chloro-5,6,7,8-tetrahydroacridine-3-carbonyl)-2,5-dimethylpiperazine-1-carboxylate] |
| 100 | CC(C)(CN)c1ccc(-c2cc(Cl)c3ccc(C(=O)N4CCN(C(=O)c5cn(C6CC6)nn5)CC4)cc3n2)cc1 [D012, (2-(4-(1-Amino-2-methylpropan-2-yl)phenyl)-4-chloroquinolin-7-yl)(4-(1-cyclopropyl-1H-1,2,3-triazole-4-carbonyl)piperazin-1-yl)nethanone] |
| 800 | CCCOC(=O)N1CCN(C(=O)c2ccc3c(Cl)cc(-c4ccc(COCCOC)cc4)nc3c2)CC1 [B224, Propyl 4-(4-chloro-2-(4-((2-methoxyethoxy)methyl)phenyl)quinoline-7-carbonyl)piperazine-1-carboxylate] |
| 340 | CCCOC(=O)N1CCN(C(=O)c2ccc3c(Cl)c4c(nc3c2)CC(c2ncccc2F)CC4)[C@H](C)C1 (stereo partly drawn) [A113, Propyl (3R)-4-(9-chloro-6-(3-fluoropyridin-2-yl)-5,6,7,8-tetrahydroacridine-3-carbonyl)-3-methylpiperazine-1-carboxylate] |
| 1200 | CCCOC(=O)N1CCN(C(=O)c2ccc3c(Cl)c4c(nc3c2)CCC(CN(C)C)C4)CC1 (stereo not shown) [A068, Propyl 4-(9-chloro-7-((dimethylamino)methyl)-5,6,7,8-tetrahydroacridine-3-carbonyl)piperazine-1-carboxylate] |
| 58 | CCCOC(=O)N1CCN(C(=O)c2ccc3c(Cl)cc(-c4cccc(NC)c4)nc3c2)C[C@H]1C [B083, Propyl (R)-4-(4-chloro-2-(3-(methylamino)phenyl)quinoline-7-carbonyl)-2-methylpiperazine-1-carboxylate] |
| 110 | CCCOC(=O)N1CCN(C(=O)c2ccc3c(Cl)cc(-c4cnn(C)c4)nc3c2)C[C@H]1C [B215, Propyl (R)-4-(4-chloro-2-(1-methyl-1H-pyrazol-4-yl)quinoline-7-carbonyl)-2-methylpiperazine-1-carboxylate] |
| 3600 | CCCOC(=O)N1CCN(C(=O)c2ccc3c(Cl)cc(-c4ccc(C(=O)O)c(C)c4)nc3c2)CC1 [B137, 4-(4-Chloro-7-(4-(propoxycarbonyl)piperazine-1-carbonyl)quinolin-2-yl)-2-methylbenzoic acid] |
